In US10023575B2, “Cyclic ether derivatives of pyrazolo[1,5-a]pyrimidine-3-carboxyamide” (Boehringer Ingelheim International GmbH, priority 2015, dated 2018):
pIC50: −log10 of the molar value.

What was measured:
[1] = target: PDE10 (Homo sapiens (Human), UniProt Q9Y233); test: Phosphodiesterase (PDE) 10 assay with fluorescent substrate (IMAP, fluorescence polarization); format: biochemical; conditions: labeled cAMP 30 nM
Description: (§1) The PDE reaction cleaves cAMP to AMP. The IMAP system (Molecular Device) using fluorescence polarization (FP) as detection principle was used to measure enzyme activity. A fluorescent labeled cAMP was used as substrate for the reaction, generating a labeled AMP. The fluorescent AMP binds specifically to the large M(III)-based nano-particles which reduces the rotational speed of the substrate and thus increases its polarization.
(§2) The inhibition of PDE 2A or 10 enzyme activity was assessed using IMAP-Phosphodiesterase-cAMP fluorescence labeled substrate (Molecular Devices, Order No. R7506), IMAP TR-FRET screening express (Molecular Devices, Order No. R8160, the TR-FRET component will not be used) and PDE 2A or PDE10 protein expressed upon baculovirus infection in SF9 cells. The cells were incubated after infection for ˜3 days and protein production was confirmed by Western Blot. The cells were collected by centrifugation and the pellet frozen in liquid nitrogen before it was resuspended in PBS containing 1% Triton X-100 and protease inhibitors. After 45 min incubation on ice, the cell debris was removed by centrifugation (13.000 rpm, 30 min).
(§3) All reactions were performed in 384 well plates, Perkin Elmer black optiplates and IMAP reaction buffer with 0.1% Tween20 (kit component)
(§4) Compounds were serial diluted in DMSO. With an intermediate dilution step with reaction buffer DMSO concentration was reduced to achieve 1% DMSO in the assay reaction. Setup of the assay started with 10 μl enzyme (˜10 ng/well, depending on prep. batch), 5 μl compound, reaction was started by addition of 5 μl labeled cAMP (30 nM, final concentration), immediately mixed for 15 seconds on a Eppendorf mixmate (2000 rpm) followed by an incubation at room temperature for 90 minutes in the dark. Reaction is stopped by adding of 60 μl binding buffer for FP/cAMP (kit component).
(§5) Each assay plate contained wells with vehicle controls (1% DMSO) for the measurement of non-inhibited reaction (=100% control) and wells without enzyme as 0% controls.

[2] = target: PDE 2A (Homo sapiens (Human), UniProt O00408); test: Phosphodiesterase (PDE) 2A assay with fluorescent substrate (IMAP, fluorescence polarization); format: biochemical; conditions: labeled cAMP 30 nM, read-out: PDE2 IC50
Description: as §1, §2, §3, §4, §5

PDE 2A, sequence (O00408 whole entry, species assumed): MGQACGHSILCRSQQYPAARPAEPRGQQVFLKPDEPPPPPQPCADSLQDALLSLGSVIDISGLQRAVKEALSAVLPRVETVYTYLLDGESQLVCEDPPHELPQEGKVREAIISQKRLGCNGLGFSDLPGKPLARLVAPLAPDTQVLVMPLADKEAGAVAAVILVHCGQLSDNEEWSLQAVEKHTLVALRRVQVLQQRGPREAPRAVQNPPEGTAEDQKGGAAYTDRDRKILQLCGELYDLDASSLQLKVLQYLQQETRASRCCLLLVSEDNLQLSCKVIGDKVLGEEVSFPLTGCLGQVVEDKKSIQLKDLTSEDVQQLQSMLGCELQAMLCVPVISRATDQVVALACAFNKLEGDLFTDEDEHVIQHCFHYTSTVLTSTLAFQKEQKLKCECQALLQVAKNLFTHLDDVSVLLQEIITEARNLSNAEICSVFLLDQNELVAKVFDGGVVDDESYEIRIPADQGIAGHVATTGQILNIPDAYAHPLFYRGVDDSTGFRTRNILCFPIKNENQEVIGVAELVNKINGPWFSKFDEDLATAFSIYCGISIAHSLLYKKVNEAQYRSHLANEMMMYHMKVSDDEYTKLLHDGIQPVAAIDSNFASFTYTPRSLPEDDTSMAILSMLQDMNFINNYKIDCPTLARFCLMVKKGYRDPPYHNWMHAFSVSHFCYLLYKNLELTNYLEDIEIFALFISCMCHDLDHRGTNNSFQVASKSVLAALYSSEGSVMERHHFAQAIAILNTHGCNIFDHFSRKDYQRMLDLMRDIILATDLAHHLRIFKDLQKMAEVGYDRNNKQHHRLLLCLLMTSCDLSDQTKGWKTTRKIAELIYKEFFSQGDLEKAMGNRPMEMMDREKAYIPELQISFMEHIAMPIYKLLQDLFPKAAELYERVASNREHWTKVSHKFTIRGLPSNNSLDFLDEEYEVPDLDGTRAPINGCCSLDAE
PDE10, sequence (Q9Y233 whole entry): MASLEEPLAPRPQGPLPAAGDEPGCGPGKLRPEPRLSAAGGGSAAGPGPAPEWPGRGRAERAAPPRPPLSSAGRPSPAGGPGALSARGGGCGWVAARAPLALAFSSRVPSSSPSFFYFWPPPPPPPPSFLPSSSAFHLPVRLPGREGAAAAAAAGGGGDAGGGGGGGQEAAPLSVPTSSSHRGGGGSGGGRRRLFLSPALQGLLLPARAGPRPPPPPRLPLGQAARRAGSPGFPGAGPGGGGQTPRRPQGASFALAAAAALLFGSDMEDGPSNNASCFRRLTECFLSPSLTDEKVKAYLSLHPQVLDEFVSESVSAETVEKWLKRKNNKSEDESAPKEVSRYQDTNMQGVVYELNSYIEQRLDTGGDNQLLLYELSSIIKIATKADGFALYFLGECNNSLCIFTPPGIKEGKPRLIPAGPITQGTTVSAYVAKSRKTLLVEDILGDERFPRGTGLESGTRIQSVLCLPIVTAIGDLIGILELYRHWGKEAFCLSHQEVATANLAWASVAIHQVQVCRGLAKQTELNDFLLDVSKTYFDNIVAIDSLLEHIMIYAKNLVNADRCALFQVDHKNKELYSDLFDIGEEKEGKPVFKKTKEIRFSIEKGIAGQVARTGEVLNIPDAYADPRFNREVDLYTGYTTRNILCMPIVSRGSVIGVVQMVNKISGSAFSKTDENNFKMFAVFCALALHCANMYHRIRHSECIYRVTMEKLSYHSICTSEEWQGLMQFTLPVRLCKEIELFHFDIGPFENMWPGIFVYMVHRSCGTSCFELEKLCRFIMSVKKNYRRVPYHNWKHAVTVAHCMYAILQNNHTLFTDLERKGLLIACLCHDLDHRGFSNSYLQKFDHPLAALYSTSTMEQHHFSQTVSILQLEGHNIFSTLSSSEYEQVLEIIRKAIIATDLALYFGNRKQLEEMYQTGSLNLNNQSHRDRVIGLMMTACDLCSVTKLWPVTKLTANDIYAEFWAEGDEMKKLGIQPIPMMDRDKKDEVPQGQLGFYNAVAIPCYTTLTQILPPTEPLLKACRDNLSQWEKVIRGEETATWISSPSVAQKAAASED

Cc1cnc2c(C(=O)NC3(c4ccc(C(F)(F)F)cc4F)COCC3O)cnn2c1 (single isomer, unassigned) [Example 75]
pIC50 [1]: < 5.00

O=C(NC1(c2ccc(C(F)(F)F)nc2)CCOCC1O)c1cnn2cc(C3CC3)cnc12 (racemic) [Example 52]
pIC50 [2]: 6.64
pIC50 [1]: < 5.00

Cc1cnc2c(C(=O)NC3(c4ccc(C(F)(F)F)cc4F)COCC3(C)O)cnn2c1 (centres unmarked) [Example 58]
pIC50 [1]: < 5.00

Cc1cnc2c(C(=O)NC3(c4ncc(C(F)(F)F)cc4F)CCOCC3)c(C)nn2c1 [Example 18]
pIC50 [2]: 6.89
pIC50 [1]: 5.06

O=C(NC1(c2ccc(F)cc2Cl)CCOCC1)c1cnn2cc(C3CC3)cnc12 [Example 6]
pIC50 [2]: 6.70
pIC50 [1]: < 5.00

Cc1cnc2c(C(=O)NC3(c4ccc(C(F)(F)F)nc4)CCOCC3O)cnn2c1 (racemic) [Example 50]
pIC50 [2]: 6.22
pIC50 [1]: < 5.00

O=C(NC1(c2ccc(C(F)(F)F)nc2)CCOCC1O)c1cnn2cc(C3CC3)cnc12 (single isomer, unassigned) [Example 89a]
pIC50 [2]: 6.00
pIC50 [1]: < 5.00

O=C(N[C@]1(c2ccc(C(F)(F)F)cc2F)CCOC[C@H]1O)c1cnn2cc(C3CC3)cnc12 (racemic) [Example 48]
pIC50 [2]: 8.87
pIC50 [1]: 5.18

Cc1nn2cc(C3CC3)cnc2c1C(=O)NC1(c2ccc(C(F)(F)F)cn2)CCOCC1O (racemic) [Example 65]
pIC50 [2]: 7.52
pIC50 [1]: 5.01

Cc1cnc2c(C(=O)NC3(c4ccc(Cl)cc4F)CCOCC3)cnn2c1 [Example 5]
pIC50 [2]: 6.59
pIC50 [1]: 4.91

Cc1cnc2c(C(=O)NC3(c4ncc(C(F)(F)F)cc4F)CCOCC3)cnn2c1 [Example 19]
pIC50 [2]: 6.28
pIC50 [1]: < 5.00

Cc1nn2cc(C3CC3)cnc2c1C(=O)NC1(c2ccc3ccccc3n2)CCOCC1 [Example 11]
pIC50 [2]: 6.53
pIC50 [1]: 5.83

Cc1cnc2c(C(=O)NC3(c4ccc(C(F)(F)F)nc4)CCOCC3O)cnn2c1 (single isomer, unassigned) [Example 87b]
pIC50 [2]: 6.74

Cc1cnc2c(C(=O)NC3(c4ccc(C(F)(F)F)cc4F)COCC3(C)O)cnn2c1 (single isomer, unassigned) [Example 93a]
pIC50 [1]: < 5.00

Cc1cnc2c(C(=O)NC3(c4ccc(C(F)(F)F)nc4)CCOCC3)c(C)nn2c1 [Example 26]
pIC50 [2]: 6.76
pIC50 [1]: < 5.00

Cc1nn2cc(C3CC3)cnc2c1C(=O)NC1(c2ncc(C(F)(F)F)cc2F)CCOCC1O (racemic) [Example 61]
pIC50 [2]: 7.72
pIC50 [1]: 5.18

Cc1cnc2c(C(=O)NC3(c4ccc(C(F)(F)F)cc4F)COCC3O)cnn2c1 (single isomer, unassigned) [Example 74]
pIC50 [1]: < 5.00

Cc1cnc2c(C(=O)NC3(c4ccc(C(F)(F)F)cc4F)COCC3O)cnn2c1 (single isomer, unassigned) [Example 72]
pIC50 [1]: < 5.00

O=C(NC1(c2ccc(Br)cc2)CCOCC1)c1cnn2cc(C3CC3)cnc12 [Example 13]
pIC50 [2]: 6.44
pIC50 [1]: 5.00

Cc1cnc2c(C(=O)NC3(c4ccc(C(F)(F)F)cc4F)COCC3O)cnn2c1 (single isomer, unassigned) [Example 73]
pIC50 [1]: < 5.00

Cc1cnc2c(C(=O)NC3(c4ncc(C(F)(F)F)cc4F)CCOCC3O)cnn2c1 (racemic) [Example 56]
pIC50 [2]: 6.64
pIC50 [1]: < 5.00

O=C(NC1(c2ccc(OC(F)F)c(F)c2)CCOCC1)c1cnn2cc(C3CC3)cnc12 [Example 14]
pIC50 [2]: 6.34
pIC50 [1]: 5.07

O=C(NC1(c2ccc(C(F)(F)F)cc2)CCCOC1)c1cnn2cc(C3CC3)cnc12 (racemic) [Example 32]
pIC50 [2]: 7.17
pIC50 [1]: < 5.00

O=C(NC1(c2ncc(C(F)(F)F)cc2F)CCOCC1)c1cnn2cc(C3CC3)cnc12 [Example 20]
pIC50 [2]: 6.76
pIC50 [1]: < 5.00

Cc1cnc2c(C(=O)NC3(c4ccc(C(F)(F)F)cn4)CCOC3)c(C)nn2c1 (racemic) [Example 44]
pIC50 [2]: 6.08

O=C(NC1(c2ccc(OC(F)(F)F)cc2)CCCOC1)c1cnn2cc(C3CC3)cnc12 (racemic) [Example 33]
pIC50 [2]: 7.08
pIC50 [1]: < 5.00

Cc1cnc2c(C(=O)NC3(c4ccc(C(F)(F)F)cc4)CCOCC3)cnn2c1 [Example 9]
pIC50 [2]: 6.93
pIC50 [1]: < 5.00

Cc1cnc2c(C(=O)NC3(c4ccc5ccccc5n4)CCOCC3)cnn2c1 [Example 12]
pIC50 [2]: 5.78
pIC50 [1]: < 5.00

Cc1cnc2c(C(=O)NC3(c4ccc(C(F)(F)F)cc4F)COCC3(C)O)cnn2c1 (single isomer, unassigned) [Example 92b]
pIC50 [1]: < 5.00

Cc1cnc2c(C(=O)NC3(c4ccc(Cl)cc4F)CCOC3)cnn2c1 (racemic) [Example 39]
pIC50 [2]: 6.25
pIC50 [1]: < 5.00

O=C(NC1(c2ccc(C(F)(F)F)cc2F)CCOCC1O)c1cnn2cc(C3CC3)cnc12 (single isomer, unassigned) [Example 82b]
pIC50 [2]: 7.40
pIC50 [1]: 5.07

Cc1cnc2c(C(=O)NC3(c4ccc(C(F)(F)F)nc4)CCOCC3)cnn2c1 [Example 28]
pIC50 [2]: 6.08
pIC50 [1]: < 5.00

Cc1cnc2c(C(=O)NC3(c4ccc(C(F)(F)F)cc4F)CCOCC3O)cnn2c1 (racemic) [Example 47]
pIC50 [1]: < 5.00

Cc1cnc2c(C(=O)NC3(c4ccc(C(F)(F)F)cc4)CCOC3)cnn2c1 (racemic) [Example 36]
pIC50 [1]: < 5.00

Cc1cnc2c(C(=O)NC3(c4ccc(C(F)(F)F)cc4F)COCC3(C)O)cnn2c1 (single isomer, unassigned) [Example 92a]
pIC50 [1]: < 5.00

O=C(NC1(c2ccc(C(F)(F)F)nc2)CCOCC1)c1cnn2cc(C3CC3)cnc12 [Example 27]
pIC50 [2]: 6.27
pIC50 [1]: < 5.00

Cc1nn2cc(C3CC3)cnc2c1C(=O)NC1(c2ccc(C(F)(F)F)nc2)CCOC1 (racemic) [Example 42]
pIC50 [2]: 6.89
pIC50 [1]: 5.25

Cc1cnc2c(C(=O)NC3(c4ccc(C(F)(F)F)cn4)CCOCC3)c(C)nn2c1 [Example 22]
pIC50 [2]: 6.92
pIC50 [1]: 5.00

Cc1cnc2c(C(=O)NC3(c4ccc(C(F)(F)F)cn4)CCOCC3)cnn2c1 [Example 24]
pIC50 [2]: 6.12
pIC50 [1]: < 5.00

O=C(NC1(c2ccc(Cl)cc2F)CCOCC1)c1cnn2cc(C3CC3)cnc12 [Example 7]
pIC50 [2]: 7.11
pIC50 [1]: 5.04

O=C(NC1(c2ccc(C(F)(F)F)cn2)CCOCC1)c1cnn2cc(C3CC3)cnc12 [Example 23]
pIC50 [2]: 6.63
pIC50 [1]: < 5.00

Cc1cnc2c(C(=O)NC3(c4ccc(C(F)(F)F)cn4)CCOCC3O)cnn2c1 (racemic) [Example 64]
pIC50 [2]: 6.30
pIC50 [1]: < 5.00

Cc1cnc2c(C(=O)NC3(c4ccc(Cl)cc4F)CCOCC3)c(C)nn2c1 [Example 4]
pIC50 [2]: 7.32
pIC50 [1]: 6.26

Cc1nn2cc(C3CC3)cnc2c1C(=O)NC1(c2ncc(C(F)(F)F)cc2F)CCOCC1(C)O (racemic) [Example 62]
pIC50 [2]: 6.90

O=C(NC1(c2ccc(C(F)(F)F)cc2)CCOCC1)c1cnn2cc(C3CC3)cnc12 [Example 8]
pIC50 [2]: 7.16
pIC50 [1]: < 5.00

O=C(NC1(c2ccc(C(F)(F)F)cc2F)CCOC1)c1cnn2cc(C3CC3)cnc12 (racemic) [Example 34]
pIC50 [2]: 7.57
pIC50 [1]: 4.97

Cc1nn2cc(C3CC3)cnc2c1C(=O)NC1(c2ncc(C(F)(F)F)cc2F)CCOCC1O (single isomer, unassigned) [Example 90a]
pIC50 [2]: 6.70
pIC50 [1]: 5.07

Cc1cnc2c(C(=O)NC3(c4ccc(OC(F)F)c(F)c4)CCOCC3)cnn2c1 [Example 15]
pIC50 [2]: 6.13
pIC50 [1]: < 5.00

Cc1cnc2c(C(=O)NC3(c4ccc(C(F)(F)F)cc4F)COCC3(C)O)cnn2c1 (single isomer, unassigned) [Example 93b]
pIC50 [1]: < 5.00

Cc1cnc2c(C(=O)NC3(c4ccc(C(F)(F)F)cc4)CCOCC3O)cnn2c1 (racemic) [Example 59]
pIC50 [2]: 7.22
pIC50 [1]: < 5.00

O=C(NC1(c2ccc(Cl)c(F)c2)CCOCC1)c1cnn2cc(C3CC3)cnc12 [Example 16]
pIC50 [2]: 6.27
pIC50 [1]: < 5.00

O=C(NC1(c2ncc(C(F)(F)F)cc2F)CCOCC1O)c1cnn2cc(C3CC3)cnc12 (racemic) [Example 57]
pIC50 [2]: 6.99
pIC50 [1]: < 5.00

Cc1nn2cc(C3CC3)cnc2c1C(=O)NC1(c2ncc(C(F)(F)F)cc2F)CCOCC1O (single isomer, unassigned) [Example 90b]
pIC50 [2]: 7.85
pIC50 [1]: 5.13

O=C(NC1(c2ccc(C(F)(F)F)cn2)CCOCC1O)c1cnn2cc(C3CC3)cnc12 (racemic) [Example 63]
pIC50 [2]: 6.91
pIC50 [1]: < 5.00

O=C(N[C@]1(c2ccc(C(F)(F)F)cc2F)CCOC[C@@H]1O)c1cnn2cc(C3CC3)cnc12 (racemic) [Example 49]
pIC50 [2]: 7.15
pIC50 [1]: < 5.00

Cc1cnc2c(C(=O)NC3(c4ccc(C(F)(F)F)cc4F)CCOCC3=O)cnn2c1 (centres unmarked) [Example 67]
pIC50 [2]: 7.30
pIC50 [1]: < 5.00
